# Assay results: PMC8725448 (Journal of Cannabis Research, 2022)
# Several values for one entry are separate records, joined by “and”; a condition that tells them apart may be missing. Equal values may be shown once. Read-outs that look alike come from different tables or passages of the source.
# Legend:
# [1] = test system: hyperthermia-induced seizures in Scn1a^+/- mice; conditions: cited from earlier work
# [2] = test system: maximal electroshock (MES) seizure threshold; parameters: method as in Anderson et al. 2021b; conditions: ref Anderson et al. 2021b; cited from earlier work
# [3] = target: T1, CaV3.1 (Homo sapiens, UniProt O43497); parameters: method as in Anderson et al. 2021a, 2021b and unpublished data; conditions: at therapeutically relevant concentrations; ref Anderson et al. 2021a, 2021b and unpublished data; cited from earlier work
# T1 construct: expressed in transfected cells; host or cells: Flp-In T-REx HEK (tetracycline-induced)
# [4] = target: T2, human GPR55 (Homo sapiens, UniProt Q9Y2T6); parameters: method as in Anderson et al. 2021a, 2021b and unpublished data; conditions: at therapeutically relevant concentrations; ref Anderson et al. 2021a, 2021b and unpublished data; cited from earlier work
# T2 construct: expressed in transfected cells; host or cells: HEK293
# [5] = parameters: method as in Anderson et al. 2019b; conditions: CBGA; ref Anderson et al. 2019b; cited from earlier work
# [6] = test system: control HEK293 cells; test: GPR55 negative control pERK experiment; format: cell-based, human; conditions: 10 μM; control HEK293 cells without GPR55
# Protocol: ERK phosphorylation (pERK) was detected using the AlphaScreen® SureFire® Phospho-ERK1/2 assay (Perkin Elmer; Waltham, USA) as previously described (Anderson et al. [2021b]). Briefly, the human embryonic kidney (HEK) 293 cells stably expressing human GPR55 in L-15 media were plated (110,000/well) into a Corning CellBIND (Corning Inc; Corning, USA) clear, flat-bottomed 96-well plate and incubated 20–24 h at 37°C in ambient CO2. Media was aspirated, 50 μL phenol red-free DMEM/F-12 was added to each well and incubated for 2–3 h at 37°C in a humidified 5% CO2 atmosphere. Compounds (10 μM in phenol red-free DMEM/F-12) were added and incubated for 20 min before media was aspirated and lysis buffer was added. Lysates (5 μL) were incubated with reaction mixture (7 μL) for 3.5 h at room temperature. A CLARIOstar plate reader (BMG Labtech; Offenburg, GER) was used to take fluorescence readings over 740 msec (excitation 680 nm, emission 520–620 nm). Fluorescence readings were normalized to those of 4 μM LPI, the endogenous GPR55 agonist. No effect of LPI (10 μM) is observed in control HEK293 cells (Supplemental Fig. 1). Final DMSO concentrations were ≤ 0.2%. […]
# (LPI). Data are expressed as mean ± SEM normalized to 100 nM phorbol 12-myrisate 13-acetate (PMA), […]
# [7] = ref Anderson et al. 2019b, 2021a, 2021b
# T1 sequence (O43497 whole entry): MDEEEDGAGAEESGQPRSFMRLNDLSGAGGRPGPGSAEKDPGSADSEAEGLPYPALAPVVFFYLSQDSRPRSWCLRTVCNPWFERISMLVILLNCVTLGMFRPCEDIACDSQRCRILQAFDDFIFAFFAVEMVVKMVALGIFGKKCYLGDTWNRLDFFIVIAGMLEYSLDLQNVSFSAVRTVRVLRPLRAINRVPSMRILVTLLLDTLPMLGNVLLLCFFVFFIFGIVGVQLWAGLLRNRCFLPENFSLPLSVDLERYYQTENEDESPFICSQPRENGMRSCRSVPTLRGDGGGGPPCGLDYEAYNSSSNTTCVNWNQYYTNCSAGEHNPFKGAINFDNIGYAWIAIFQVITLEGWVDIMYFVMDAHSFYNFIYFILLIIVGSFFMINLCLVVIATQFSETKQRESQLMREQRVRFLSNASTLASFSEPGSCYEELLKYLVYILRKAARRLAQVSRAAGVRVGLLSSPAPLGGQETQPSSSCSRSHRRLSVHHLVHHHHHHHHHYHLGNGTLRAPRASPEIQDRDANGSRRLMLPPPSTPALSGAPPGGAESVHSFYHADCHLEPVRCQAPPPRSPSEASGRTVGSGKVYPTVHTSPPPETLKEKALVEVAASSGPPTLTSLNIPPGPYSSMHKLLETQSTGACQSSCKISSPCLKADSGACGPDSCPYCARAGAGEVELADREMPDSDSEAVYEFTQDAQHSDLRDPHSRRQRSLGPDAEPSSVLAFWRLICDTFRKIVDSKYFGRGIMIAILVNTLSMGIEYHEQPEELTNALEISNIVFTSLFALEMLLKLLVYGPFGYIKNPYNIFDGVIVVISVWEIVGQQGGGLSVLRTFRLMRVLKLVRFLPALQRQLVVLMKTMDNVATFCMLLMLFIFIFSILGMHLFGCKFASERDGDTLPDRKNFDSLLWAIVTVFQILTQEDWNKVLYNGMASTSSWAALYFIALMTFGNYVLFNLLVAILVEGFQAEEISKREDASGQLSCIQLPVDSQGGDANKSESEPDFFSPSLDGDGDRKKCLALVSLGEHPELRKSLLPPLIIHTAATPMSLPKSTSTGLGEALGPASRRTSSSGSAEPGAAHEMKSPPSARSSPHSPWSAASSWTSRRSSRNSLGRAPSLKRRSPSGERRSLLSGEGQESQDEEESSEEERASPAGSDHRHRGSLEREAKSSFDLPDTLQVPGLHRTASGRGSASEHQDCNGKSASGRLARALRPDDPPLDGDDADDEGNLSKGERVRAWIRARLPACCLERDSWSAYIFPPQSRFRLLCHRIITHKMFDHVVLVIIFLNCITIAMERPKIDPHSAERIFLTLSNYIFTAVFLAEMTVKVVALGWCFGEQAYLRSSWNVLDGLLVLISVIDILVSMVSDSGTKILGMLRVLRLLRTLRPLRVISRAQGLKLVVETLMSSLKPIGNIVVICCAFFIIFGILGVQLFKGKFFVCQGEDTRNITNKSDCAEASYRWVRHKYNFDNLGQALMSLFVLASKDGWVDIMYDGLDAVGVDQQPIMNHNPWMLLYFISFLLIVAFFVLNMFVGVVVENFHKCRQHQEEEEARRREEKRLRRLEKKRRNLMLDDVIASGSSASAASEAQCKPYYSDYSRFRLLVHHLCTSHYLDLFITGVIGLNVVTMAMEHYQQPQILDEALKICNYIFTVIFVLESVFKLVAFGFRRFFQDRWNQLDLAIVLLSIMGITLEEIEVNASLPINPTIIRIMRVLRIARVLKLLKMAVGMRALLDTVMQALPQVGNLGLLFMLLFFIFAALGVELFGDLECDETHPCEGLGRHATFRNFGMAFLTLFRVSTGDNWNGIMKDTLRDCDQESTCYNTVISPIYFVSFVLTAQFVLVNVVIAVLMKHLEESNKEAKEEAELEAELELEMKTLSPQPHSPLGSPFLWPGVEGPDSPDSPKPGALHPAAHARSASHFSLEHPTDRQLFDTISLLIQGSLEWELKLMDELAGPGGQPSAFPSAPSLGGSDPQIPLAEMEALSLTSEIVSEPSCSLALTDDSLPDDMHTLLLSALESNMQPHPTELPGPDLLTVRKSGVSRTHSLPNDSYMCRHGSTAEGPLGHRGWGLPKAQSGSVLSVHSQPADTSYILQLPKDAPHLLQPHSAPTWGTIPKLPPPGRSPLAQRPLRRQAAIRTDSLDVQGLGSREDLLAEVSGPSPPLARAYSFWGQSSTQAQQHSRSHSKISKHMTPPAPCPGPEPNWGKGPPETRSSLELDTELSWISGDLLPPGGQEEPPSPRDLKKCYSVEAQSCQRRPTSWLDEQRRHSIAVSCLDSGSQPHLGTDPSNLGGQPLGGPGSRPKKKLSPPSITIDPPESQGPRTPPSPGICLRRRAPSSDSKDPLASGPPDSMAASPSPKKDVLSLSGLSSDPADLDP
# T2 sequence (Q9Y2T6 whole entry): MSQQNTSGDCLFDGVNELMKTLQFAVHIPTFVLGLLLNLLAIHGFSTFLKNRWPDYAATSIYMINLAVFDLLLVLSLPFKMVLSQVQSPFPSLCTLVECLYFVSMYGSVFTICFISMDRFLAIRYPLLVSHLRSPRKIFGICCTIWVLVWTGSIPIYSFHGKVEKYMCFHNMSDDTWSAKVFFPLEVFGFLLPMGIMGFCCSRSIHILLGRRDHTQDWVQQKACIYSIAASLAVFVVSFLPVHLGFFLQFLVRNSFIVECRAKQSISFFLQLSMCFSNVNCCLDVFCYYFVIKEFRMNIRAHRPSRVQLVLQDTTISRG
compound,measurement,setting,value
"CCCCCc1cc(O)c(C/C=C(\C)CCC=C(C)C)c(O)c1 [CBG, cannabigerol]",efficacy against hyperthermia-induced seizures,[1]; [7],not effective
"C=C(C)[C@@H]1CCC(C)=C[C@H]1c1c(O)cc(CCCCC)c(C(=O)O)c1O [CBDA, cannabidiolic acid]",efficacy against hyperthermia-induced seizures,[1]; [7],anticonvulsant
"CCCCCc1cc(O)c(C/C=C(\C)CCC=C(C)C)c(O)c1C(=O)O [CBGA, Cannabigerolic acid]",anticonvulsant properties in MES seizure threshold test,[2],anticonvulsant properties
same,activity at Cav3.1 channels,[3],inhibition
same,activity at GPR55,[4],inhibition
same,brain penetration / brain uptake,[5],2% and ~ 2%
same,efficacy against hyperthermia-induced seizures,"[1]; 30 mg/kg, ref Anderson et al. 2021b",effective
same,increase of threshold temperature,"[1]; 100 mg/kg, ref Anderson et al. 2021b",~1 °C
same,efficacy against hyperthermia-induced seizures,[1]; [7],anticonvulsant properties
CCCCCc1cc2c(c(O)c1C(=O)O)C=CC(C)(CCC=C(C)C)O2 (centres unmarked) [CBCA],efficacy against hyperthermia-induced seizures,[1]; [7],anticonvulsant
Lysophosphatidylinositol [LPI],effect on ERK phosphorylation,[6],No effect
"C=C(C)[C@@H]1CCC(C)=C[C@H]1c1c(O)cc(CCCCC)cc1O [CBD, cannabidiol]",increase of temperature threshold,"[1]; 100 mg/kg, ref Anderson et al. 2019a, 2020, Kaplan et al. 2017",approximately 0.5 °C
CCCc1cc(O)c(C/C=C(\C)CCC=C(C)C)c(O)c1C(=O)O [CBGVA],efficacy against hyperthermia-induced seizures,[1]; [7],anticonvulsant
C=C(C)[C@@H]1CCC(C)=C[C@H]1c1c(O)cc(CCC)c(C(=O)O)c1O [CBDVA],efficacy against hyperthermia-induced seizures,[1]; [7],anticonvulsant
